This is an account of results in patent US11395847B2, “Acylated GLP-1/GLP-2 dual agonists” (Zealand Pharma A/S, priority 2016, dated 2022).

The term EC50 denotes the concentration giving half of the maximal effect. For orientation: solubility means the concentration that dissolves in the medium under given conditions.

In data set [1] the target is T1, human GLP-2 receptor (Homo sapiens, UniProt O95838, D470N).
T1 construct: expressed in transfected cells
T1 sequence (O95838 1-553 D470N): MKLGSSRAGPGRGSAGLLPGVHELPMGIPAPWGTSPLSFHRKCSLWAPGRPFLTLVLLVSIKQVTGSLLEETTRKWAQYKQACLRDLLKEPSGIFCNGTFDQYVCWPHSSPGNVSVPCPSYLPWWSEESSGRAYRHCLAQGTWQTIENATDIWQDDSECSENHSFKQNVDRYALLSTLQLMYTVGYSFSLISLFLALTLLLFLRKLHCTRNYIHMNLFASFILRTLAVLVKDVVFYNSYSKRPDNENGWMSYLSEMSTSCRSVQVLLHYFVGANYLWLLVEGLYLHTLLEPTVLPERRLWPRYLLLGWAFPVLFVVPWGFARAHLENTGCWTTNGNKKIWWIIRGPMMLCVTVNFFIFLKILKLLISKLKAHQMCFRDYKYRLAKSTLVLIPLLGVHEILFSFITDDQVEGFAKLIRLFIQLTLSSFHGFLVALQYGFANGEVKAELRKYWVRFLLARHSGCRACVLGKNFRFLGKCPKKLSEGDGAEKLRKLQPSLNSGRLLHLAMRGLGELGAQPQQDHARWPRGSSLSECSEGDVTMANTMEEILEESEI
Kind of data set: GLP-2 receptor potency assay (cAMP ALPHASCREEN, HEK293 cells stably expressing GLP-2 R). In kind it is cell-based. As to conditions: cAMP response, HEK293 cells expressing human GLP-2 R; read-out: EC50 GLP-2. The source says:
One useful in vitro assay for measuring GLP-1 and GLP-2 receptor activity is quantitation of cAMP, i.e. 3′-5′-cyclic adenosine monophosphate, which is a second messenger essential in many biological processes, and one of the most ubiquitous mechanisms for regulating cellular functions.
For subcloning into a mammalian expression vector, primers for subcloning were obtained from DNA-Technology, Risskov, Denmark. The 5′ and 3′ primers used for the PCR reaction include terminal restriction sites for cloning and the context of the 5′ primer is modified to a Kozak consensus without changing the sequence of the product encoded by the ORF. […] The generated PCR product was purified using GFX PCR and Gel band purification kit, digested with restriction enzymes and cloned into the mammalian expression vector using Rapid DNA Ligation Kit. Ligation reaction was transformed to XL10 Gold Ultracompetent cells and colonies were picked for DNA production using ENDOFREE® Plasmid maxi kit. Subsequent sequence analysis was conducted by MWG Eurofins, Germany.
HEK293 cells were transfected using the LIPOFECTAMINE® PLUS transfection method. The day before transfection, HEK293 cells were seeded in two T75 flasks at a density of 2×10^6 cells/T75 flask in cell culturing medium without antibiotics. On the day of transfection, cells were washed with 1× DPBS and medium was replaced with OPTI-MEM© to a volume of 5 mL/T75 flask before addition of LIPOFECTAMINE®-plasmid complexes were added gently and drop wise to the cells in T75 flasks and replaced with growth medium after 3 hours and again to growth medium supplemented with 500 μg/mL G418 after 24 hours. Following 4 weeks in G418 selection, clones were picked and tested in a functional GLP-2 receptor potency assay as described below.
The cAMP ALPHASCREEN® assay from Perkin Elmer was used to quantitate the cAMP response to activation of the GLP1 and GLP2 receptor, respectively. […] Data from test compounds eliciting an increase in the intracellular level of cAMP were normalized relative to the positive and negative control (vehicle) to calculate the EC50 and maximal response from the concentration response curve.
For orientation: Alpha assays give light when donor and acceptor beads are brought close together.

Data set [2] is described as follows: Solubility assessment (turbidity absorbance at 325 nm). In kind it is physicochemical. The essentials: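 Peptide stock at 2 mg/ml in water at pH 2.5 diluted 1:1 into 100 mM acetate (pH 4.0, 5.0), histidine (pH 6.0, 7.0) or phosphate (pH 6.0, 7.0, 7.5) buffer. Absorbance at 280 and 325 nm read at ambient temperature (typically 25 °C), single samples (n=1).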
Data set [3] is described as follows: Chemical stability (RP-HPLC normalized purity after incubation at 40° C.). It counts as physicochemical. The settings on record: 14-day incubation, 0.2 mg/ml, normalized purity (area-%); for pH 7 normalized stability: pH 7, 40° C. The essentials: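 Peptide at 0.2 mg/ml final in water adjusted to pH 6, 7, 7.5 or 9, incubated at 40° C for 14 days. Purity measured as main-peak area-% by C18 RP-HPLC (acetonitrile/TFA/water gradient, UV 220 nm) and normalized to T=0 set at 100 for each pH.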

[4] abbreviates: 100 mM acetate buffer pH 4.0, ambient temperature, read-out: Solubility Acetate buffer pH 4.
Where [5] appears, read: 100 mM acetate buffer pH 5.0, ambient temperature, read-out: Solubility Acetate buffer pH 5.
Setting [6] is: 100 mM histidine buffer pH 6.0, ambient temperature, read-out: Solubility Histidine buffer pH 6.
Setting [7] is: 100 mM histidine buffer pH 7.0, ambient temperature, read-out: Solubility Histidine buffer pH 7.
Where [8] appears, read: 100 mM phosphate buffer pH 6.0, ambient temperature, read-out: Solubility Phosphate buffer pH 6.
The mark [9] stands for this setting: 100 mM phosphate buffer pH 7.0, ambient temperature, read-out: Solubility Phosphate buffer pH 7.
Setting [10] is: 100 mM phosphate buffer pH 7.5, ambient temperature, read-out: Solubility Phosphate buffer pH 7.5.

Read-outs that look alike come from different tables or passages of the source. *1 amine or outer side, *2 acyl side, *3 side chain or, on linkers, in order; H or OH if unused. Where a SMILES comes first, the peptide text is derived from it. Side-chain parts run from the residue outwards. [ ]: non-standard residue; d: D form. The star is where a group is joined. C20 diacid = O=C(O)CCCCCCCCCCCCCCCCCCC(=O)*; γGlu = O=C(O)[C@H](CCC(=O)[*:2])N[*:1]; AEEA = NCCOCCOCC(=O)O; Aib = CC(C)(N)C(=O)O Bounds are passed on as bounds.

With `CC[C@H](C)[C@H](NC(=O)[C@H](Cc1ccccc1)NC(=O)[C@H](CC(=O)O)NC(=O)[C@H](CCCNC(=N)N)NC(=O)[C@H](C)NC(=O)[C@H](C)NC(=O)[C@H](CCC(N)=O)NC(=O)[C@H](CCCCNC(=O)CC[C@H](NC(=O)CCCCCCCCCCCCCCCCC(=O)O)C(=O)O)NC(=O)[C@H](CC(=O)O)NC(=O)[C@H](CC(C)C)NC(=O)[C@@H](NC(=O)[C@@H](NC(=O)[C@H](C)NC(=O)[C@H](CC(C)C)NC(=O)[C@H](CCC(=O)O)NC(=O)[C@H](CO)NC(=O)[C@H](CO)NC(=O)[C@H](Cc1ccccc1)NC(=O)[C@@H](NC(=O)CNC(=O)[C@H](CCC(=O)O)NC(=O)C(C)(C)NC(=O)[C@@H](N)Cc1c[nH]cn1)[C@@H](C)O)[C@@H](C)O)[C@@H](C)CC)C(=O)N[C@@H](C)C(=O)N[C@@H](Cc1c[nH]c2ccccc12)C(=O)N[C@@H](CC(C)C)C(=O)N[C@H](C(=O)N[C@@H](CCC(N)=O)C(=O)N[C@@H](Cc1c[nH]cn1)C(=O)N[C@@H](CCCCN)C(=O)N[C@H](C(=O)N[C@H](C(=O)N[C@@H](CC(=O)O)C(=O)O)[C@@H](C)O)[C@@H](C)CC)[C@@H](C)CC` [Compound 17] (HELM PEPTIDE1{H.[Aib].E.G.T.F.S.S.E.L.A.T.I.L.D.K.Q.A.A.R.D.F.I.A.W.L.I.Q.H.K.I.T.D}|PEPTIDE2{[O=C(O)CCCCCCCCCCCCCCCCC(=O)[*:2]].[gGlu]}$PEPTIDE1,PEPTIDE2,16:R3-2:R2$$$V2.0), the EC50 in data set [1] worked out at 0.33 nM. Further, the solubility is less than 1000 µg/mL in data set [2] (setting [4]); less than 1000 µg/mL in data set [2] (setting [5]); no less than 1000 µg/mL in data set [2] (setting [6]); no less than 1000 µg/mL in data set [2] (setting [7]); no less than 1000 µg/mL in data set [2] (setting [8]); no less than 1000 µg/mL in data set [2] (setting [9]). For the same compound, the solubility in data set [2] (setting [10]) was no less than 1000 µg/mL.
In the case of `CC[C@H](C)[C@H](NC(=O)[C@H](CC(C)C)NC(=O)[C@H](Cc1c[nH]c2ccccc12)NC(=O)[C@H](C)NC(=O)[C@@H](NC(=O)[C@H](Cc1ccccc1)NC(=O)[C@H](CC(=O)O)NC(=O)[C@H](CCCNC(=N)N)NC(=O)[C@H](C)NC(=O)[C@H](C)NC(=O)[C@H](CCC(N)=O)NC(=O)[C@H](CCCCNC(=O)CC[C@H](NC(=O)CCCCCCCCCCCCCCCCC(=O)O)C(=O)O)NC(=O)[C@H](CC(=O)O)NC(=O)[C@H](CC(C)C)NC(=O)[C@@H](NC(=O)[C@@H](NC(=O)[C@H](C)NC(=O)[C@H](CC(C)C)NC(=O)[C@H](CCC(=O)O)NC(=O)[C@H](CO)NC(=O)[C@@H](NC(=O)[C@H](Cc1ccccc1)NC(=O)[C@H](CO)NC(=O)CNC(=O)[C@H](CCC(=O)O)NC(=O)C(C)(C)NC(=O)[C@@H](N)Cc1c[nH]cn1)[C@@H](C)O)[C@@H](C)O)[C@@H](C)CC)[C@@H](C)CC)C(=O)N[C@@H](C)C(=O)N[C@@H](Cc1c[nH]cn1)C(=O)N[C@@H](CCCCN)C(=O)N[C@H](C(=O)N[C@H](C(=O)N[C@@H](CC(=O)O)C(=O)O)[C@@H](C)O)[C@@H](C)CC` [Compound 22] (HELM PEPTIDE1{H.[Aib].E.G.S.F.T.S.E.L.A.T.I.L.D.K.Q.A.A.R.D.F.I.A.W.L.I.A.H.K.I.T.D}|PEPTIDE2{[O=C(O)CCCCCCCCCCCCCCCCC(=O)[*:2]].[gGlu]}$PEPTIDE1,PEPTIDE2,16:R3-2:R2$$$V2.0), in data set [3] (pH 6, 40° C.), the “pH 6 normalized stability” value is on record as “A (>90% normalised stability)”. Further, the “pH 7 normalized stability” value in data set [3] is listed as “B (>80% stability)”. Moreover, in data set [1], the EC50 was 0.2 nM. Further, the solubility in data set [2] (setting [4]) is less than 1000 µg/mL; in data set [2] (setting [5]), less than 1000 µg/mL; in data set [2] (setting [6]) it was no less than 1000 µg/mL; in data set [2] (setting [7]), no less than 1000 µg/mL; in data set [2] (setting [8]), no less than 1000 µg/mL; in data set [2] (setting [9]), no less than 1000 µg/mL. The solubility in data set [2] (setting [10]) is no less than 1000 µg/mL.
On to `CC[C@H](C)[C@H](NC(=O)[C@H](Cc1ccccc1)NC(=O)[C@H](CC(=O)O)NC(=O)[C@H](CCCNC(=N)N)NC(=O)[C@H](C)NC(=O)[C@H](C)NC(=O)[C@H](CCC(N)=O)NC(=O)[C@H](CCC(=O)O)NC(=O)[C@H](CC(=O)O)NC(=O)[C@H](CC(C)C)NC(=O)[C@@H](NC(=O)[C@@H](NC(=O)[C@H](C)NC(=O)[C@H](CCCCNC(=O)COCCOCCNC(=O)COCCOCCNC(=O)CC[C@H](NC(=O)CCCCCCCCCCCCCCCCCCC(=O)O)C(=O)O)NC(=O)[C@H](CCC(=O)O)NC(=O)[C@H](CO)NC(=O)[C@@H](NC(=O)[C@H](Cc1ccccc1)NC(=O)[C@H](CO)NC(=O)CNC(=O)[C@H](CCC(=O)O)NC(=O)C(C)(C)NC(=O)[C@@H](N)Cc1c[nH]cn1)[C@@H](C)O)[C@@H](C)O)[C@@H](C)CC)C(=O)N[C@@H](C)C(=O)N[C@@H](Cc1c[nH]c2ccccc12)C(=O)N[C@@H](CC(C)C)C(=O)N[C@H](C(=O)N[C@@H](CCC(=O)O)C(=O)N[C@@H](Cc1c[nH]cn1)C(=O)N[C@@H](CCCCN)C(=O)N[C@H](C(=O)N[C@H](C(=O)N[C@@H](CC(=O)O)C(=O)O)[C@@H](C)O)[C@@H](C)CC)[C@@H](C)CC` [Compound 42] (H-H[Aib]EGSFTSEK([AEEA-AEEA-γGlu-C20 diacid])ATILDEQAARDFIAWLIEHKITD-OH), for which the “pH 7 normalized stability” value in data set [3] is “A (>90% normalised stability)”. Also, the concentration giving a half-maximal response (EC50) in data set [1] amounted to 0.33 nM.
Take `CC[C@H](C)[C@H](NC(=O)[C@H](Cc1ccccc1)NC(=O)[C@H](CC(=O)O)NC(=O)[C@H](CCCCNC(=O)COCCOCCNC(=O)COCCOCCNC(=O)[C@H](CCCCN)NC(=O)[C@H](CCC(=O)O)NC(=O)[C@H](CCCCN)NC(=O)CC[C@H](NC(=O)CCCCCCCCCCCCCCCCCCC(=O)O)C(=O)O)NC(=O)[C@H](C)NC(=O)[C@H](C)NC(=O)[C@H](CCC(N)=O)NC(=O)[C@H](CCC(=O)O)NC(=O)[C@H](CC(=O)O)NC(=O)[C@H](CC(C)C)NC(=O)[C@@H](NC(=O)[C@@H](NC(=O)[C@H](C)NC(=O)[C@H](CC(C)C)NC(=O)[C@H](CCC(=O)O)NC(=O)[C@H](CO)NC(=O)[C@@H](NC(=O)[C@H](Cc1ccccc1)NC(=O)[C@H](CO)NC(=O)CNC(=O)[C@H](CCC(=O)O)NC(=O)C(C)(C)NC(=O)[C@@H](N)Cc1c[nH]cn1)[C@@H](C)O)[C@@H](C)O)[C@@H](C)CC)C(=O)N[C@@H](C)C(=O)N[C@@H](Cc1c[nH]c2ccccc12)C(=O)N[C@@H](CC(C)C)C(=O)N[C@H](C(=O)N[C@@H](CCC(=O)O)C(=O)N[C@@H](Cc1c[nH]cn1)C(=O)N[C@@H](CCCCN)C(=O)N[C@H](C(=O)N[C@H](C(=O)N[C@@H](CC(=O)O)C(=O)O)[C@@H](C)O)[C@@H](C)CC)[C@@H](C)CC` [Compound 66] (H-H[Aib]EGSFTSELATILDEQAAK([AEEA-AEEA-Lys-Glu-Lys-γGlu-C20 diacid])DFIAWLIEHKITD-OH): the EC50 in data set [1] was 0.18 nM.
